Tested on: mouse
Experiment: Metrazol Test (tail vein infusion, seizure susceptibility)
Assay type: in vivo
Details: for Metrazol Dose Required for First Twitch: Dose at First Twitch: about 5 mg/ml infused through tail vein at about 0.375 ml/min
Experimental: A metrazol administration test can be used to screen animals for varying susceptibilities to seizures or similar events. For example, a 5 mg/ml solution of metrazol can be infused through the tail vein of a mouse at a rate of, e.g., approximately 0.375 ml/min. The infusion will cause all mice to experience seizures, followed by death. Those mice that enter the seizure stage the soonest are believed to be more prone to seizures.
To screen for phenotypes involving changes in seizure susceptibility, the Metrazol Test was be used. About 5 mg/ml of Metrazol was infused through the tail vein of the mouse at a constant rate of about 0.375 ml/min. The infusion caused all mice to experience seizures. Those mice who entered the seizure stage the quickest were thought to be more prone to seizures in general.
The Metrazol test can also be used to screen for phenotypes related to epilepsy. Seven to ten adult wild-type and homozygote males were used. A fresh solution of about 5 mg/ml pentylenetetrazole in approximately 0.9% NaCl was prepared prior to testing. Mice were weighed and loosely held in a restrainer. After exposure to a heat lamp to dilate the tail vein, mice were continuously infused with the pentylenetetrazole solution using a syringe pump set at a constant flow rate. The following stages were recorded: first twitch (sometimes accompanied by a squeak), beginning of the tonic/clonic seizure, tonic extension and survival time. The dose required for each phase was determined and the latency to each phase was determined between genotypes. Alterations in any stage may indicate an overall imbalance in excitatory or inhibitory neurotransmitter levels.

C1CCc2nnnn2CC1 [Metrazol, pentylenetetrazole]
dose of metrazol to induce the first twitch response, homozygous mutant (−/−) compared to wild-type (+/+) control mice (age- and gender-matched mice): higher dose | Metrazol Dose Required for First Twitch: Dose at First Twitch (homozygous mutant (−/−) CLCN4 male mice): 34.14 mg/kg | Metrazol Dose Required for First Twitch: Dose at First Twitch (wild-type (+/+) male mice): 28.06 mg/kg
